Assay results reported in US11390631B1, “Benzodiazepine derivatives as RSV inhibitors” (priority 2015, dated 2022).
pEC50: −log10 of the molar value.

System: Human RSV-A (“Long” strain)
Experiment: RSV-A assay: inhibition of cytopathic effect in Hep-2 cells, ATPlite readout
Format: cell-based, Human respiratory syncytial virus (HRSV)
Details: Hep-2 cells, MOI 0.1, 5-day incubation, ATPlite; read-out: Human RSV-A (“Long” strain) EC50
Text: Hep-2 cells, (originally derived from tumors grown in irradiated-cortisonised weanling rats that had been injected with epidermoid carcinoma tissue from a person's larynx, but later found to be indistinguishable from HeLa cells by PCR DNA analysis), were used for the culturing of genotype A, “Long” strain RSV. Flasks were inoculated with RSV and viral stocks were collected once cytopathic effect (CPE) was greater than 90%. Viral stocks in 25% sucrose media were snap frozen using liquid nitrogen to increase viral stability. Viral stock titers were quantified by tissue culture infectious dose 50% (TCID50) using 8,000 cells per well and 3-fold viral dilutions across a 96-well plate, cultured for 4 days. Viral stock titers were also quantified by a plaque forming unit assay, as described elsewhere.
Following extensive parameter testing, the final assay is run as follows: Hep-2 cells are seeded into the inner 60 wells of a 96-well plate at 8,000 cells per well in a volume of 50 μL using Growth Media (DMEM without phenol red, 1% L-Glut, 1% Penn/Strep, 1% nonessential amino acids, 10% heat-inactivated FBS). 2-fold serial dilutions of control and test compounds are added to the wells in duplicate in a total volume of 25 μL. Viral stock is then added to the wells at a multiplicity of infection (MOI) of 0.1 in a volume of 25 μL, bringing the total volume of each well to 100 μL. The MOI is calculated using the PFU/mL, or TCID50 if unavailable. Each 96-well plate has a control column of 6 wells with cells and virus but no compound (negative control, max CPE), a column with cells but no compound or virus (positive control, minimum CPE), and a column with no cells or virus or compound (background plate/reagent control). The control wells with cells but no virus are given an additional 25 uL of growth media containing an equal quantity of sucrose as those wells receiving the viral stock in order to keep consistent in media and volume conditions. The outer wells of the plate are filled with 125 μL of moat media (DMEM, 1% Penn/Strep) to act as a thermal and evaporative moat around the test wells. Following a 5-day incubation period, the plates are read using ATPlite (50 uL added per well), which quantifies the amount of ATP (a measure of cell health) present in each well. Assay plates are read using the Envision luminometer. In parallel, cytotoxicity is examined on an additional 96-well plate treated in an identical manner, but substituting the 25 μL of viral stock for 25 μL of growth media. […] EC50 ranges are as follows: A<0.4 μM; B 0.4-0.8 μM; C>0.8 μM and CC50 ranges are as follows: A>50 μM; B 10-50 μM; C<10 μM.

Compound | pEC50
O=C1Nc2ccccc2C(c2ccccc2)=N[C@@H]1Nc1nnc(-c2nc(C(F)(F)F)sc2N2CCO[C@H]3C[C@H]32)o1 (single isomer, unassigned) [Example 484] | > 6.40
O=C1Nc2ccccc2C(c2ccccc2)=N[C@H]1Nc1nnc(-c2nc(C(F)(F)F)sc2N2CCO[C@H]3C[C@H]32)o1 (single isomer, unassigned) [Example 485] | < 6.10
O=C1Nc2ccccc2C(c2ccccc2)=N[C@@H]1Nc1nnc(-c2nc(C(F)(F)F)sc2N2CCO[C@@H]3C[C@@H]32)o1 (single isomer, unassigned) [Example 486] | < 6.10
O=C1Nc2ccccc2C(c2ccccc2)=N[C@H]1Nc1nnc(-c2nc(C(F)(F)F)sc2N2CCO[C@@H]3C[C@@H]32)o1 (single isomer, unassigned) [Example 487] | < 6.10

Same assay, conditions: human respiratory syncytial virus, HEp-2, 120 h, read-out: Human RSV-A (“Long” strain) EC50

Compound | pEC50
O=C1Nc2ccccc2C(c2ccccc2)=N[C@@H]1Nc1nnc(-c2ncc(C(F)(F)F)cc2N2CCOC3CC32)o1 (mixture of isomers) [Example 466] | > 6.40
O=C1Nc2ccccc2C(c2ccccc2)=N[C@@H]1Nc1nnc(-c2ncc(C(F)(F)F)cc2N2CCOC(C(F)(F)F)C2)o1 (mixture of isomers) [Example 467] | > 6.40
N#Cc1ccc(-c2nnc(NC3N=C(c4ccccc4)c4ccccc4NC3=O)o2)nc1 (stereo not shown) [Example 24] | 6.10 to 6.40
COc1cc(-c2nnc(NC3N=C(c4ccccc4)c4ccccc4NC3=O)o2)ccn1 (stereo not shown) [Example 56] | < 6.10
CCOC(=O)c1nnc(NC2N=C(c3ccccc3)c3ccccc3NC2=O)o1 (stereo not shown) [Example 78] | < 6.10
O=C1Nc2ccccc2C(c2ccccc2)=NC1Nc1ncc(-c2ccccc2)s1 (stereo not shown) [Example 85] | < 6.10
O=C1Nc2ccccc2C(c2ccccc2)=NC1Nc1noc(-c2ccccc2)n1 (stereo not shown) [Example 91] | < 6.10
COc1ccc(CN2C(=O)C(C)(N)N=C(c3ccccc3)c3ccccc32)cc1 (stereo not shown) [Example 102] | < 6.10
CS(=O)(=O)c1ccc(-c2nnc(NC3N=C(c4ccccc4)c4ccccc4NC3=O)o2)nc1 (stereo not shown) [Example 107] | < 6.10
COc1ccc(-c2nnc(NC3N=C(c4ccccc4)c4ccccc4NC3=O)o2)nc1Cl (stereo not shown) [Example 109] | < 6.10
Cc1nc(-c2nnc(NC3N=C(c4ccccc4)c4ccccc4NC3=O)o2)ccc1F (stereo not shown) [Example 110] | < 6.10
O=C1Nc2ccccc2C(c2ccccc2)=NC1Nc1nnc(-c2cccc(N3CCOCC3)c2)o1 (stereo not shown) [Example 111] | < 6.10
O=C1Nc2ccccc2C(c2ccccc2)=NC1Nc1nnc(-c2ccc(N3CCOCC3)c(F)c2)o1 (stereo not shown) [Example 112] | < 6.10
O=C1Nc2ccccc2C(c2ccccc2)=NC1Nc1nnc(-c2ccc(N3CCOCC3)cn2)o1 (stereo not shown) [Example 114] | < 6.10
O=C1Nc2ccccc2C(c2ccccc2)=NC1Nc1nnc(-c2ccc(N3CCOCC3)nc2)o1 (stereo not shown) [Example 115] | > 6.40
O=C1Nc2ccccc2C(c2ccccc2)=NC1Nc1nnc(-c2ccc(NC3CCCCC3)cc2)o1 (stereo not shown) [Example 116] | < 6.10
COCCNc1ccc(-c2nnc(NC3N=C(c4ccccc4)c4ccccc4NC3=O)o2)cc1 (stereo not shown) [Example 117] | < 6.10
COCCN(C)c1ccc(-c2nnc(NC3N=C(c4ccccc4)c4ccccc4NC3=O)o2)cc1 (stereo not shown) [Example 118] | < 6.10
O=C1Nc2ccccc2C(c2ccccc2)=NC1Nc1nnc(-c2cc(F)ccc2N2CCOCC2)o1 (stereo not shown) [Example 119] | 6.10 to 6.40
CS(=O)(=O)c1ccc(-c2nnc(NC3N=C(c4ccccc4)c4ccccc4NC3=O)o2)c(N2CCOCC2)c1 (stereo not shown) [Example 121] | < 6.10
O=C1Nc2ccccc2C(c2ccccc2)=NC1Nc1nnc(-c2ccc(N3CCOCC3)cc2Cl)o1 (stereo not shown) [Example 122] | < 6.10
O=C1Nc2ccccc2C(c2ccccc2)=NC1Nc1nnc(-c2ccc(N3CCOCC3)cc2)o1 (stereo not shown) [Example 124a] | > 6.40
O=C1Nc2ccccc2C(c2ccccc2)=N[C@H]1Nc1nnc(-c2ccc(N3CCOCC3)cc2)o1 [Example 124b] | < 6.10

Compound | pEC50
O=C1Nc2ccccc2C(c2ccccc2)=N[C@@H]1Nc1nnc(-c2ccccc2N2CCOCC2)o1 [Example 125a] | > 6.40
O=C1Nc2ccccc2C(c2ccccc2)=N[C@H]1Nc1nnc(-c2ccccc2N2CCOCC2)o1 [Example 125b] | < 6.10
O=C1Nc2ccccc2C(c2ccccc2)=N[C@@H]1Nc1nnc(-c2ccc(N3CCOCC3)cc2F)o1 [Example 126a] | > 6.40
O=C1Nc2ccccc2C(c2ccccc2)=N[C@H]1Nc1nnc(-c2ccc(N3CCOCC3)cc2F)o1 [Example 126b] | < 6.10
O=C1Nc2ccccc2C(c2ccccc2)=NC1Nc1nnc(-c2ccc(-n3cncn3)cc2N2CCOCC2)o1 (stereo not shown) [Example 128] | 6.10 to 6.40
O=C1Nc2ccccc2C(c2ccccc2)=NC1Nc1nnc(-c2ccc(C(F)(F)F)nc2N2CCOCC2)o1 (stereo not shown) [Example 130] | 6.10 to 6.40
O=C1Nc2ccccc2C(c2ccccc2)=NC1Nc1nnc(-c2ncccc2N2CCOCC2)o1 (stereo not shown) [Example 132] | > 6.40
O=C1Nc2ccccc2C(c2ccccc2)=NC1Nc1nnc(-c2cnccc2N2CCOCC2)o1 (stereo not shown) [Example 133] | 6.10 to 6.40
O=C1Nc2ccccc2C(c2ccccc2)=NC1Nc1nnc(-c2cnccc2N2CCCCC2)o1 (stereo not shown) [Example 134] | < 6.10
O=C1Nc2ccccc2C(c2ccccc2)=NC1Nc1nnc(-c2ncc(N3CCOCC3)cc2Cl)o1 (stereo not shown) [Example 135] | < 6.10
N#Cc1cnc(-c2nnc(NC3N=C(c4ccccc4)c4ccccc4NC3=O)o2)c(N2CCOCC2)c1 (stereo not shown) [Example 140] | > 6.40
O=C1Nc2ccccc2C(c2ccccc2)=NC1Nc1nnc(-c2ccncc2N2CCCCC2)o1 (stereo not shown) [Example 141] | < 6.10
O=C1Nc2ccccc2C(c2ccccc2)=NC1Nc1nnc(-c2ccncc2N2CCOCC2)o1 (stereo not shown) [Example 142] | 6.10 to 6.40
O=C1Nc2ccccc2C(c2ccccc2)=NC1Nc1nnc(-c2nccnc2N2CCOCC2)o1 (stereo not shown) [Example 143] | > 6.40
O=C1Nc2ccccc2C(c2ccccc2)=NC1Nc1nnc(-c2cc(F)cnc2N2CCOCC2)o1 (stereo not shown) [Example 145] | 6.10 to 6.40
O=C1Nc2ccccc2C(c2ccccc2)=NC1Nc1nnc(-c2cc(C(F)(F)F)cnc2N2CCOCC2)o1 (stereo not shown) [Example 146] | < 6.10
O=C1Nc2ccccc2C(c2ccccc2)=NC1Nc1nnc(-c2ccc(N3CCOCC3)cc2C(F)(F)F)o1 (stereo not shown) [Example 147] | < 6.10
O=C1Nc2ccccc2C(c2ccccc2)=NC1Nc1nnc(-c2cccc(F)c2N2CCOCC2)o1 (stereo not shown) [Example 148] | < 6.10
O=C1Nc2ccccc2C(c2ccccc2)=N[C@@H]1Nc1nnc(-c2ccc(F)nc2N2CCOCC2)o1 [Example 151, (S)-3-((5-(6-fluoro-2-morpholinopyridin-3-yl)-1,3,4-oxadiazol-2-yl)amino)-5-phenyl-1,3-dihydro-2H-benzo[e][1,4]diazepin-2-one] | > 6.40
O=C1Nc2ccccc2C(c2ccccc2)=N[C@@H]1Nc1nnc(-c2ccc(C(F)(F)F)cc2N2CCOCC2)o1 [Example 152] | > 6.40
O=C1Nc2ccccc2C(c2ccccc2)=N[C@@H]1Nc1nnc(-c2ccc(C3CC3)nc2N2CCOCC2)o1 [Example 154] | > 6.40
O=C1Nc2ccccc2C(c2ccccc2)=N[C@@H]1Nc1nnc(-c2ccc(=O)[nH]c2N2CCOCC2)o1 [Example 156, (S)-3-((5-(2-morpholino-6-oxo-1,6-dihydropyridin-3-yl)-1,3,4-oxadiazol-2-yl)amino)-5-phenyl-1,3-dihydro-2H-benzo[e][1,4]diazepin-2-one] | < 6.10
